Melting point data for 1 molecule are collected here from US7468393B2, “Diarylsulfones as 5-HT2A antagonists” (Merck Sharp & Dohme Ltd., priority 2004, dated 2008).

A word on the melting point: it is the temperature of the solid-liquid transition.

The structures appear in SMILES notation.

Regarding `C[C@H](O)c1ccccc1S(=O)(=O)c1ccc(/C=C/c2ccc(F)cc2)cc1` [Example 135, (1S)-1-[2-({4-[(E)-2-(4-fluorophenyl)vinyl]phenyl}sulfonyl)phenyl]ethanol], the melting point stood at 75 °C.
